Experimental data from paper PMC4884539 (Journal of molecular biology, 2016).

Conditions: pH 7.4

Row | Solubility (in words) | Substance
1 | less soluble | Ac- MNWESkGEwlRMRYGtmLSNGnM- NH2 [Design P2]
2 | less soluble | Ac- RGEaWmYlKNNLSETmMsNmWGR- NH2 [AP6]
